Counter-ions that a name gives are not always drawn. Each block holds one molecule with its values, some of them ahead of it.
What was measured:
C57BL/KsJ-db/db mice = test: Efficacy in genetic models: blood sugar and triglyceride lowering in db/db mice; format: in vivo, mouse; conditions: 3 mg/kg oral, results after 6 days
Source text: a) Efficacy in Genetic Models Mutation in colonies of laboratory animals and different sensitivities to dietary regimens has made the development of animal models with non-insulin dependent diabetes and hyperlipidemia associated with obesity and insulin resistance possible. Genetic models such as db/db and ob/ob (Diabetes, (1982) 31(1): 1-6) mice and zucker fa/fa rats have been developed by the various laboratories for understanding the pathophysiology of disease and testing the efficacy of new antidiabetic compounds (Diabetes, (1983) 32: 830-838; Annu. Rep. Sankyo Res. Lab. (1994). 46: 1-57). The homozygous animals, C57 BL/KsJ-db/db mice developed by Jackson Laboratory, US, are obese, hyperglycemic, hyperinsulinemic and insulin resistant (J. Clin. Invest., (1990) 85: 962-967), whereas heterozygous are lean and normoglycemic. In db/db model, mouse progressively develops insulinopenia with age, a feature commonly observed in late stages of human type II diabetes when blood sugar levels are insufficiently controlled. The state of pancreas and its course vary according to the models. Since this model resembles that of type II diabetes mellitus, the compounds of the present invention will be tested for blood sugar and triglycerides lowering activities.
Male C57BL/KsJ-db/db mice of 8 to 14 weeks age, having body weight range of 35 to 60 grams, bred at Dr. Reddy's Research Foundation (DRF) animal house, were used in the experiment. The mice are provided with standard feed (National Institute of Nutrition (NIN), Hyderabad, India) and acidified water, ad libitum. The animals having more than 350 mg/dl blood sugar will be used for testing. The number of animals in each group will be 4.
Test compounds are suspended on 0.25% carboxymethyl cellulose and administered to test group at a dose of 0.1 mg to 30 mg/kg through oral gavage daily for 6 days. The control group receives vehicle (dose 10 ml/kg). On 6th day the blood samples will be collected one hour after administration of test compounds/vehicle for assessing the biological activity.
The random blood sugar and triglyceride levels can be measured by collecting blood (100 μl) through orbital sinus, using heparinised capillary in tubes containing EDTA which was centrifuged to obtain plasma. The plasma glucose and triglyceride levels can be measured spectrometrically, by glucose oxidase and glycerol-3-PO4 oxidase/peroxidase enzyme (Dr. Reddy's Lab. Diagnostic Division Kits, Hyderabad, India) methods respectively.
The blood sugar and triglycerides lowering activities of the test compound are calculated according to the formula.
(§1) 1. Percent reduction in Blood sugar/triglycerides/total cholesterol will be calculated according to the formula:
(§2) [formula] • OC=Zero day control group value • OT=Zero day treated group value • TC=Test day control group value • TT=Test day treated group value

hPPARγ1 = target: T1, hPPARγ1 (Homo sapiens, UniProt P37231); test: Determination of hPPARγ activity (GAL4 luciferase reporter, transfected HEK-293 cells); format: cell-based; conditions: compound concentration 1 μM
T1 construct: expressed in transfected cells; host or cells: HEK-293
T1 sequence (P37231 238-503 limits assumed): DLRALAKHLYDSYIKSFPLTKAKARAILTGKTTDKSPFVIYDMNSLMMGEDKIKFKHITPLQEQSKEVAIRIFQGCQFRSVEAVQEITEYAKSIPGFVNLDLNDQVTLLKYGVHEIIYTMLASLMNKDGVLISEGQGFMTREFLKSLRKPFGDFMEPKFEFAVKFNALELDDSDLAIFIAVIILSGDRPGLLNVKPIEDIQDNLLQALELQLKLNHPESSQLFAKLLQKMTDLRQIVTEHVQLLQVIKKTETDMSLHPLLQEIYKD
Experimental: b) Determination of hPPARγ activity Ligand binding domain of hPPARγ1 is fused to DNA binding domain of Yeast transcription factor GAL4 in eucaryotic expression vector. Using lipofectamine (Gibco BRL, USA) as transfecting reagent HEK-293 cells are transfected with this plasmid and a reporter plasmid harboring the luciferase gene driven by a GAL4 specific promoter. Compound can be added at 1 μM concentration after 48 hrs of transfection and incubated overnight. Luciferase activity as a function of drug binding/activation capacity of PPARγ1 will be measured using Packard Luclite kit (Packard, USA) in Packard Top Count (Ivan Sadowski, Brendan Bell, Peter Broag and Melvyn Hollis. Gene. 1992. 118: 137-141; Guide to Eukaryotic Transfections with Cationic Lipid Reagents. Life Technologies, GIBCO BRL, USA).

hPPARα = target: T2, hPPARα (Homo sapiens, UniProt Q07869); test: Determination of hPPARα activity (GAL4 luciferase reporter, transfected HEK-293 cells); format: cell-based; conditions: compound concentration 50 μM
T2 construct: expressed in transfected cells; host or cells: HEK-293
T2 sequence (Q07869 239-466 limits assumed): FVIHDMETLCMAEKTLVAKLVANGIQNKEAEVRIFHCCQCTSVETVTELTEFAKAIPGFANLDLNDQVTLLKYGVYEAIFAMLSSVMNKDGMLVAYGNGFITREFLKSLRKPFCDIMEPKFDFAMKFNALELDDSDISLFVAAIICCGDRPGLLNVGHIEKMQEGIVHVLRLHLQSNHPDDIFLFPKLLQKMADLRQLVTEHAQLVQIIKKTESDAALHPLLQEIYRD
Experimental: a) Determination of hPPARα activity Ligand binding domain of hPPARα was fused to DNA binding domain of Yeast transcription factor Gal 4 in eucaryotic expression vector. Using superfect (Qiagen, Germany) as transfecting reagent HEK-293 cells are transfected with this plasmid and a reporter plasmid harboring the luciferase gene driven by a GAL4 specific promoter. Compound can be added at different concentrations after 42 hrs of transfection and incubated overnight. Luciferase activity as a function of compound binding/activation capacity of PPARα will be measured using Packard Luclite kit (Packard, USA) in Top Count (Ivan Sadowski, Brendan Bell, Peter Broag and Melvyn Hollis. Gene. 1992. 118: 137-141; Superfect Transfection Reagent Handbook. February 1997. Qiagen, Germany).

[1] = test system: hypercholesterolemic Sprague Dawley rats; test: Plasma triglyceride and cholesterol lowering activity in hypercholesterolemic rat models; format: in vivo; conditions: 1 mg/kg oral, results after 3 days
Experimental: b) Plasma triglyceride and Cholesterol lowering activity in hypercholesterolemic rat models Male Sprague Dawley rats (NIN stock) were bred in DRF animal house. Animals were maintained under 12 hour light and dark cycle at 25±1° C. Rats of 180-200 gram body weight range were used for the experiment. Animals are made hypercholesterolemic by feeding 2% cholesterol and 1% sodium cholate mixed with standard laboratory chow [National Institute of Nutrition (NIN), Hyderabad, India] for 6 days. Throughout the experimental period the animals were maintained on the same diet (Petit, D., Bonnefis, M. T., Rey, C and Infante, R. Effects of ciprofibrate on liver lipids and lipoprotein synthesis in normo- and hyperlipidemic rats. Atherosclerosis. 1988. 74: 215-225).
The test compounds can be administered orally at a dose 0.1 to 30 mg/kg/day for 3 days. Control group was treated with vehicle alone (0.25% Carboxymethylcellulose; dose 10 ml/kg).
The blood samples can be collected in fed state 1 hour after drug administration on 0 and 3 day of compound treatment. The blood can be collected from the retro-orbital sinus through heparinised capillary in EDTA containing tubes. After centrifugation, plasma sample will be separated for total cholesterol, HDL and triglyceride estimations. Measurement of plasma triglyceride, total cholesterol and HDL were done using commercial kits (Dr. Reddy's Laboratory, Diagnostic Division, India). LDL and VLDL cholesterol can be calculated from the data obtained for total cholesterol, HDL and triglyceride. The reductions of various parameters examined are calculated according to the formula.
as §1, §2
2. LDL and VLDL, cholesterol levels will be calculated according to the formula:
[formula] VLDL cholesterol in mg/dl=[Total cholesterol-HDL cholesterol-LDL cholesterol]mg/dl.

Structure (SMILES): CCOC(Cc1cccc(NCCCc2ccc(OS(C)(=O)=O)cc2)c1)C(=O)O (centres unmarked) [Example 39, 2-Ethoxy-3-[3-{3-(4-methanesulfonyloxyphenyl)propylamino}phenyl]propionic acid Arginine salt]
- Reduction in Blood Glucose Level (%) (C57BL/KsJ-db/db mice): 56%
- Triglyceride Lowering (%) (C57BL/KsJ-db/db mice): 36%

Structure (SMILES): CO[C@@H](Cc1ccc(NC/C=C/c2ccc(OS(C)(=O)=O)cc2)cc1)C(=O)O [Example 43, (S)-2-Methoxy-3-[4-{(E)-3-(4-methylsulfonyloxyphenyl)-2-propenylamino}phenyl]propionic acid]
- Increase in High Density Lipoprotein (%) [1]: 77%
- Reduction in Total Cholesterol (%) [1]: 53%
- Triglyceride Lowering (%) [1]: 55%
- Reduction in Low Density Lipoprotein (%) ([1]; LDL calculated from total cholesterol, HDL and triglyceride): 56%

Structure (SMILES): CCOC(=O)[C@H](Cc1ccc(NC/C=C/c2ccc(OS(C)(=O)=O)cc2)cc1)OC [Example 42, (S) Ethyl 2-methoxy-3-[4-{(E)-3-(4-methylsulfonyloxyphenyl)-2-propenylamino}phenyl]propionate]
- Reduction in Blood Glucose Level (%) (C57BL/KsJ-db/db mice): 63%
- Triglyceride Lowering (%) (C57BL/KsJ-db/db mice): 56%

Structure (SMILES): CCOC(Cc1ccc(NCCCc2ccc(OS(C)(=O)=O)cc2)cc1)C(=O)O (centres unmarked) (hydrate or solvate) [Example 15, 2-Ethoxy-3-[4-{3-(4-methanesulfonyloxyphenyl)propylamino}phenyl]propionic acid]
- melting point: 120 to 122 °C

Structure (SMILES): CO[C@@H](Cc1ccc(NCCCc2ccc(OS(C)(=O)=O)cc2)cc1)C(=O)O [Example 14, (S)-2-Methoxy-3-[4-{3-(4-methanesulfonyloxyphenyl)propylamino}phenyl]propionic acid]
- PPARγ (hPPARγ1): 0.7
- PPARα (hPPARα): 9.4
- melting point: 90 to 92 °C

Structure (SMILES): CCOC(Cc1ccc(NCCCc2ccc(OS(C)(=O)=O)cc2)cc1)C(=O)O (centres unmarked) [Example 15, 2-Ethoxy-3-[4-{3-(4-methanesulfonyloxyphenyl)propylamino}phenyl]propionic acid]
- PPARγ (hPPARγ1): 0.7
- PPARα (hPPARα): 6.1

Second part, the molecule after the results:

- melting point: 164 to 166 °C
Structure (SMILES): CCOC(Cc1ccc(NC(=O)CCc2ccc(OS(C)(=O)=O)cc2)cc1)C(=O)O (centres unmarked) [Example 34]

- melting point: 178 to 180 °C
Structure (SMILES): CCOC(Cc1ccc(NC(=O)/C=C/c2ccc(OS(C)(=O)=O)cc2)cc1)C(=O)O (centres unmarked) [Example 32, 2-Ethoxy-3-{4-[(E)-2-(4-methylsulfonyloxyvhenyl)-1-ethenylcarboxamido]-phenyl}propionic acid]

- melting point: 90 to 92 °C
Structure (SMILES): CCOC(=O)C(Cc1ccc(NC(=O)CCc2ccc(OS(C)(=O)=O)cc2)cc1)OCC (centres unmarked) [Example 33, Ethyl 2-ethoxy-3-[4-(4-methylsulfonyloxyphenethylcarboxamido)phenyl]-propionate]

- PPARγ (hPPARγ1): 0.8
- PPARα (hPPARα): 8.5
Structure (SMILES): CCOC(Cc1ccc(NC/C=C/c2ccc(OS(C)(=O)=O)cc2)cc1)C(=O)O (centres unmarked) [Example 27, 2-Ethoxy-3-{4-[(E)-3-(4-methylsulfonyloxyphenyl)-2-propenylamino]phenyl}propionic acid]

- melting point: 116 to 118 °C
Structure (SMILES): CO[C@@H](Cc1ccc(NC/C=C/c2ccc(OS(C)(=O)=O)cc2)cc1)C(=O)O (hydrate or solvate) [Example 43, (S)-2-Methoxy-3-[4-{(E)-3-(4-methylsulfonyloxyphenyl)-2-propenylamino}phenyl]propionic acid]

- melting point: 98 to 100 °C
Structure (SMILES): CCOC(Cc1ccc(NCCCc2ccc(OS(=O)(=O)c3ccc(C)cc3)cc2)cc1)C(=O)O (centres unmarked) (hydrate or solvate) [Example 19, 2-ethoxy-3-[4-{3-(4-(toluene-4-sulfonyloxy)phenyl)propylamino}phenyl]propionate]

- melting point: 156 to 158 °C
Structure (SMILES): CCOC(Cc1ccc(NC/C=C/c2ccc(OS(C)(=O)=O)cc2)cc1)C(=O)O (stereo in doubt) [Example 25, (S)-2-Ethoxy-3-{4-[(E)-3-(4-methylsulfonyloxyphenyl)-2-prope-nylamino]phenyl}propionic acid]

- melting point: 143 to 145 °C
Structure (SMILES): CC(C)OC(Cc1ccc(NCCCc2ccc(OS(C)(=O)=O)cc2)cc1)C(=O)O (centres unmarked) (hydrate or solvate) [Example 21, 2-Isopropoxy-3-[4-{3-(4-methanesulfonyloxyphenyl)propylamino}phenyl]propionic acid]

— patent US7598293B2, “Compounds and their use in medicine, process for their preparation and pharmaceutical compositions containing them” (Dr. Reddy's Laboratories, Inc., priority 2001, dated 2009)
